Where two headings read alike, the source gives them in different places.
What was measured:
[1] = tested on: Puccinia triticina; experiment: Puccinia triticina-test (wheat)/preventive; type: in vivo; conditions: 500 ppm, preventive, evaluated 8 days after inoculation
[2] = tested on: Pyrenophora teres; experiment: Pyrenophora teres-test (barley)/preventive; type: in vivo; conditions: 500 ppm, preventive, evaluated 8 days after inoculation
[3] = tested on: Septoria tritici; experiment: Septoria tritici-test (wheat)/preventive; type: in vivo; conditions: 500 ppm, preventive, evaluated 21 days after inoculation
[4] = tested on: Pyricularia oryzae; type: in vivo
[5] = tested on: Rhizoctonia solani; experiment: Rhizoctonia test (rice)/protective; type: in vivo; conditions: 250 ppm, protective, evaluated 4 days after inoculation
Experimental: Rhizoctonia Test (Rice)/Protective
Solvent: 28.5 parts by weight of acetone
Emulsifier: 1.5 part by weight of alkylaryl polyglycol ether
1 day after the treatment, the plants are inoculated with hyphae of Rhizoctonia solani.
Evaluation is carried out 4 days after the inoculation.

[6] = tested on: Cochliobolus miyabeanus; experiment: Cochliobolus test (rice)/protective; type: in vivo; conditions: 250 ppm, protective, evaluated 4 days after inoculation
[7] = tested on: Phakopsora pachyrhizi; experiment: Phakopsora test (soybeans)/protective; type: in vivo; conditions: 250 ppm, protective, evaluated 11 days after inoculation
[8] = tested on: Uromyces appendiculatus; conditions: 100 ppm, beans, preventive, evaluated 10 days after inoculation
[9] = physchem
[10] = tested on: Botrytis cinerea; experiment: Botrytis test (beans)/preventive; conditions: 100 ppm, preventive, lesion size 2 days after inoculation
Experimental: Botrytis Test (Beans)/Preventive
(§1) Solvent: 24.5 parts by weight of acetone • 24.5 parts by weight of N,N-dimethylformamide
(§2) Emulsifier: 1 part by weight of alkylaryl polyglycol ether
After the spray coating has dried on, 2 small pieces of agar covered with growth of Botrytis cinerea are placed on each leaf. The inoculated plants are placed in a darkened chamber at 20° C. and a relative atmospheric humidity of 100%.
2 days after the inoculation, the size of the lesions on the leaves is evaluated.

[11] = tested on: Venturia inaequalis; experiment: Venturia test (apples)/preventive; conditions: 100 ppm, preventive, evaluated 10 days after inoculation
Experimental: Venturia Test (Apples)/Preventive
as §1, §2
After the spray coating has dried on, the plants are inoculated with an aqueous conidia suspension of the causal agent of apple scab (Venturia inaequalis) and then remain for 1 day in an incubation cabinet at approximately 20° C. and a relative atmospheric humidity of 100%.
The plants are then placed in a greenhouse at approximately 21° C. and a relative atmospheric humidity of approximately 90%.
The test is evaluated 10 days after the inoculation.

[12] = tested on: Fusarium nivale (var. majus); experiment: Fusarium nivale (var. majus)-test (wheat)/preventive; conditions: preventive, evaluated 5 days after inoculation
[13] = tested on: Alternaria solani; experiment: Alternaria test (tomato)/preventive; type: in vivo; conditions: 500 ppm, preventive, evaluated 7 days after inoculation
[14] = tested on: Sphaerotheca fuliginea; experiment: Sphaerotheca test (cucumber)/preventive; type: in vivo; conditions: 500 ppm, preventive, evaluated 7 days after inoculation
[15] = logP by HPLC on reversed-phase column (EEC Directive 79/831 Annex V.A8); conditions: HPLC on reversed-phase column (C 18), EEC Directive 79/831 Annex V.A8

SMILES	Efficacy [1]	Efficacy [2]	Efficacy [3]	Efficacy ([4]; 250 ppm, rice, protective, evaluated 5 days after inoculation)	Efficacy [5]	Efficacy [6]	Efficacy [7]	Efficacy [8]	chromatographic logP ([9]; logP (acidic), HPLC, 0.1% aqueous formic acid/acetonitrile)	chromatographic logP ([9]; logP, HPLC on reversed-phase column (C 18), EEC Directive 79/831 Annex V.A8)	Efficacy [10]	Efficacy [11]	Efficacy ([12]; 500 ppm)	Efficacy [13]	Efficacy [14]	Efficacy ([4]; in vivo)	Efficacy ([12]; 250 ppm)	logP [15]
Cn1nc(C(F)F)c(C(=O)Nc2ccccc2CCC(C)(C)C)c1Cl [Example 14]	100%	100%	93%	98%	100%	90%	98%	100%	4.01	4.1	99%	100%	100%					
CC(C)C1C2CCC1c1c(NC(=O)c3c(C(F)F)nn(C)c3F)cccc12 (stereo not shown) [Example 66]	100%	100%	100%		100%	93%	98%	100%			99%	100%	86%	100%	100%	100%	93%	4.41

Source: patent US9375004B2 (Bayer Intellectual Property GmbH, priority 2010, dated 2016)
